According to the NIST ThermoML archive (doi:10.1007/s10765-011-1087-7):

Assays:
[1] = xn = mol fraction of the nth substance listed; conditions: 101 kPa, Liquid; for speed of sound: Pulse-echo method
[2] = refractive index (Na D-line) (dimensionless); xn = mol fraction of the nth substance listed; conditions: 101 kPa, Liquid

Clc1ccc(Cl)c(Cl)c1 [1,2,4-trichlorobenzene] + CCCCCCC(C)O
Conditions | mass density, [1] [kg/m3] | refractive index, [2] | speed of sound, [1] [m/s] | viscosity, [1] [mPa·s]
298.15 K, x1 = 0.0762 | 863.97 | 1.4309 | 1301.7 | 5.912
298.15 K, x1 = 0.1303 | 896.31 | 1.4366 | 1296.7 | 5.452
298.15 K, x1 = 0.2045 | 939.57 | 1.4436 | 1290.1 | 4.912
298.15 K, x1 = 0.2713 | 977.28 | 1.4501 | 1283.7 | 4.455
298.15 K, x1 = 0.3461 | 1018.61 | 1.4569 | 1278 | 3.981
298.15 K, x1 = 0.4173 | 1057.62 | 1.4631 | 1273.2 | 3.575
298.15 K, x1 = 0.4857 | 1095.63 | 1.4698 | 1269.8 | 3.223
298.15 K, x1 = 0.5454 | 1129.39 | 1.4758 | 1267 | 2.955
298.15 K, x1 = 0.6115 | 1167.72 | 1.4834 | 1264.2 | 2.699
298.15 K, x1 = 0.6798 | 1209.26 | 1.4919 | 1261.9 | 2.462
298.15 K, x1 = 0.7466 | 1252.54 | 1.5009 | 1259.9 | 2.281
298.15 K, x1 = 0.8183 | 1302 | 1.5119 | 1259.2 | 2.118
298.15 K, x1 = 0.8713 | 1341.45 | 1.521 | 1260.4 | 2.035
298.15 K, x1 = 0.9361 | 1392.95 | 1.534 | 1264.2 | 1.945
298.15 K, x1 = 1 | 1448.41 | 1.548 | 1272 | 1.926
303.15 K, x1 = 0.0762 | 860.11 | 1.4285 | 1283.9 | 4.79
303.15 K, x1 = 0.1303 | 892.4 | 1.4337 | 1279.1 | 4.507
303.15 K, x1 = 0.2045 | 935.51 | 1.4406 | 1273 | 4.124
303.15 K, x1 = 0.2713 | 973.11 | 1.4469 | 1266.9 | 3.783
303.15 K, x1 = 0.3461 | 1014.26 | 1.4539 | 1261.6 | 3.433
303.15 K, x1 = 0.4173 | 1053.06 | 1.4607 | 1256.9 | 3.12
303.15 K, x1 = 0.4857 | 1090.83 | 1.4676 | 1253.5 | 2.849
303.15 K, x1 = 0.5454 | 1124.39 | 1.474 | 1250.5 | 2.632
303.15 K, x1 = 0.6115 | 1162.51 | 1.4818 | 1248 | 2.405
303.15 K, x1 = 0.6798 | 1203.8 | 1.4905 | 1245.6 | 2.205
303.15 K, x1 = 0.7466 | 1246.93 | 1.4999 | 1244.1 | 2.045
303.15 K, x1 = 0.8183 | 1296.19 | 1.511 | 1243.5 | 1.909
303.15 K, x1 = 0.8713 | 1335.49 | 1.5202 | 1244.9 | 1.821
303.15 K, x1 = 0.9361 | 1386.92 | 1.5329 | 1248.7 | 1.769
303.15 K, x1 = 1 | 1442.43 | 1.546 | 1256.4 | 1.76
308.15 K, x1 = 0.0762 | 855.92 | 1.4271 | 1266.3 | 3.886
308.15 K, x1 = 0.1303 | 887.97 | 1.4325 | 1261.9 | 3.674
308.15 K, x1 = 0.2045 | 930.81 | 1.4396 | 1255.8 | 3.413
308.15 K, x1 = 0.2713 | 968.5 | 1.4459 | 1250.3 | 3.169
308.15 K, x1 = 0.3461 | 1009.82 | 1.4525 | 1244.9 | 2.915
308.15 K, x1 = 0.4173 | 1048.71 | 1.4591 | 1240.3 | 2.674
308.15 K, x1 = 0.4857 | 1086.14 | 1.4658 | 1237.1 | 2.456
308.15 K, x1 = 0.5454 | 1119.57 | 1.4718 | 1234.6 | 2.296
308.15 K, x1 = 0.6115 | 1157.41 | 1.4792 | 1232 | 2.117
308.15 K, x1 = 0.6798 | 1198.89 | 1.4877 | 1229.9 | 1.961
308.15 K, x1 = 0.7466 | 1241.6 | 1.4969 | 1228.4 | 1.827
308.15 K, x1 = 0.8183 | 1290.6 | 1.5078 | 1228 | 1.725
308.15 K, x1 = 0.8713 | 1329.97 | 1.517 | 1229.3 | 1.666
308.15 K, x1 = 0.9361 | 1381.4 | 1.5295 | 1233.4 | 1.628
308.15 K, x1 = 1 | 1436.45 | 1.543 | 1240.9 | 1.617

CCCCCCC(C)O (stereo not drawn) [2-octanol] + Clc1ccccc1Cl
Conditions | mass density, [1] [kg/m3] | refractive index, [2] | speed of sound, [1] [m/s] | viscosity, [1] [mPa·s]
298.15 K, x2 = 0.0721 | 841.72 | 1.4308 | 1302 | 5.353
298.15 K, x2 = 0.1124 | 856.33 | 1.4352 | 1299.7 | 4.742
298.15 K, x2 = 0.1868 | 884.26 | 1.443 | 1295.1 | 3.839
298.15 K, x2 = 0.2615 | 913.56 | 1.4507 | 1291 | 3.163
298.15 K, x2 = 0.3223 | 938.42 | 1.4569 | 1287.8 | 2.721
298.15 K, x2 = 0.3758 | 961.09 | 1.4624 | 1285.1 | 2.414
298.15 K, x2 = 0.4495 | 993.6 | 1.4698 | 1281.8 | 2.086
298.15 K, x2 = 0.512 | 1022.45 | 1.4763 | 1279.1 | 1.873
298.15 K, x2 = 0.5923 | 1061.35 | 1.4848 | 1276.1 | 1.668
298.15 K, x2 = 0.6557 | 1093.66 | 1.492 | 1274.5 | 1.551
298.15 K, x2 = 0.7312 | 1134.18 | 1.5014 | 1273.2 | 1.406
298.15 K, x2 = 0.797 | 1171.44 | 1.5103 | 1273 | 1.293
298.15 K, x2 = 0.8672 | 1213.47 | 1.521 | 1274.4 | 1.283
298.15 K, x2 = 0.9481 | 1265.11 | 1.5353 | 1277.6 | 1.308
303.15 K, x2 = 0.0721 | 837.79 | 1.4293 | 1283.9 | 4.223
303.15 K, x2 = 0.1124 | 852.34 | 1.4336 | 1281.6 | 3.749
303.15 K, x2 = 0.1868 | 880.15 | 1.4416 | 1277.6 | 3.115
303.15 K, x2 = 0.2615 | 909.35 | 1.4492 | 1273.5 | 2.648
303.15 K, x2 = 0.3223 | 934.11 | 1.4552 | 1270.5 | 2.342
303.15 K, x2 = 0.3758 | 956.68 | 1.4604 | 1267.9 | 2.15
303.15 K, x2 = 0.4495 | 989.05 | 1.4678 | 1264.9 | 1.942
303.15 K, x2 = 0.512 | 1017.76 | 1.4741 | 1262.2 | 1.772
303.15 K, x2 = 0.5923 | 1056.48 | 1.4828 | 1259.6 | 1.613
303.15 K, x2 = 0.6557 | 1088.63 | 1.4902 | 1258 | 1.473
303.15 K, x2 = 0.7312 | 1128.95 | 1.4997 | 1257 | 1.34
303.15 K, x2 = 0.797 | 1166.05 | 1.509 | 1256.7 | 1.253
303.15 K, x2 = 0.8672 | 1207.93 | 1.52 | 1257.9 | 1.201
303.15 K, x2 = 0.9481 | 1259.5 | 1.5342 | 1261.6 | 1.223
308.15 K, x2 = 0.0721 | 833.8 | 1.4274 | 1266.6 | 3.524
308.15 K, x2 = 0.1124 | 848.27 | 1.4319 | 1264 | 3.227
308.15 K, x2 = 0.1868 | 875.95 | 1.4399 | 1260.1 | 2.763
308.15 K, x2 = 0.2615 | 905.03 | 1.4476 | 1256.2 | 2.38
308.15 K, x2 = 0.3223 | 929.69 | 1.4534 | 1253.3 | 2.121
308.15 K, x2 = 0.3758 | 952.17 | 1.4587 | 1250.8 | 1.933
308.15 K, x2 = 0.4495 | 984.42 | 1.4658 | 1247.6 | 1.7
308.15 K, x2 = 0.512 | 1013.02 | 1.4718 | 1245.4 | 1.532
308.15 K, x2 = 0.5923 | 1051.57 | 1.48 | 1242.9 | 1.362
308.15 K, x2 = 0.6557 | 1083.59 | 1.4873 | 1241.5 | 1.243
308.15 K, x2 = 0.7312 | 1123.75 | 1.4967 | 1240.5 | 1.157
308.15 K, x2 = 0.797 | 1160.72 | 1.5059 | 1240.4 | 1.132
308.15 K, x2 = 0.8672 | 1202.46 | 1.5168 | 1241.5 | 1.133
308.15 K, x2 = 0.9481 | 1253.92 | 1.531 | 1243.9 | 1.14
